Experimental data published in patent US4530998A, “2'-Deoxyoxanosine” (Zaidan Hojin Biseibutsu Kagaku KenkyuKai, priority 1983, dated 1985).
≈ marks a conversion by molar mass, not a printed value.

Key:
[1] = tested on: Bacillus subtilis NRRLB-558; test: Antibacterial spectrum (MIC) on 0.5% peptone agar; type: cell-based; conditions: NRRLB558
Text: (§1) Calcd.: C:44.91, H:4.47, N:20.75, Found: C:44.78, H:4.51, N:20.89, Molecular formula: C10 H12 N4 O5 Molecular weight: 268. 2'-Deoxyoxanosine in accordance with the present invention had the following antibacterial spectrum on 0.5% peptone agar.
(§2) Antibacterial spectrum of 2'-deoxyoxanosine

[2] = tested on: Bacillus subtilis PCI219; test: Antibacterial spectrum (MIC) on 0.5% peptone agar; type: cell-based
Text: as §1, §2

[3] = tested on: Candida albicans 3147; test: Antibacterial spectrum (MIC) on 0.5% peptone agar; type: cell-based
Text: as §1, §2

[4] = tested on: Corynebacterium bovis 1810; test: Antibacterial spectrum (MIC) on 0.5% peptone agar; type: cell-based
Text: as §1, §2

[5] = tested on: Escherichia coli K-12; test: Antibacterial spectrum (MIC) on 0.5% peptone agar; type: cell-based; conditions: K12
Text: as §1, §2

[6] = tested on: Escherichia coli ML1628; test: Antibacterial spectrum (MIC) on 0.5% peptone agar; type: cell-based; conditions: Escherichia coli ML1628 (multiple resistant strain)
Text: as §1, §2

[7] = tested on: Escherichia coli NIHJ; test: Antibacterial spectrum (MIC) on 0.5% peptone agar; type: cell-based
Text: as §1, §2

[8] = tested on: Klebsiella pneumoniae PCI602; test: Antibacterial spectrum (MIC) on 0.5% peptone agar; type: cell-based
Text: as §1, §2

[9] = tested on: Microcuccus flavus FDA16; test: Antibacterial spectrum (MIC) on 0.5% peptone agar; type: cell-based
Text: as §1, §2

[10] = tested on: Mycobacterium 607; test: Antibacterial spectrum (MIC) on 0.5% peptone agar; type: cell-based
Text: as §1, §2

[11] = tested on: Proteus mirabilis IFM OM-9; test: Antibacterial spectrum (MIC) on 0.5% peptone agar; type: cell-based; conditions: IFMOM9
Text: as §1, §2

[12] = tested on: Proteus rettgeri GN311; test: Antibacterial spectrum (MIC) on 0.5% peptone agar; type: cell-based; conditions: Providencia rettgeri
Text: as §1, §2

[13] = tested on: Proteus rettgeri GN466; test: Antibacterial spectrum (MIC) on 0.5% peptone agar; type: cell-based; conditions: Providencia rettgeri
Text: as §1, §2

[14] = tested on: Proteus vulgaris OX19; test: Antibacterial spectrum (MIC) on 0.5% peptone agar; type: cell-based
Text: as §1, §2

[15] = tested on: Pseudomonas aeruginosa A3; test: Antibacterial spectrum (MIC) on 0.5% peptone agar; type: cell-based
Text: as §1, §2

[16] = tested on: Salmonella enteritidis 1891; test: Antibacterial spectrum (MIC) on 0.5% peptone agar; type: cell-based; conditions: Salmonella enterica
Text: as §1, §2

[17] = tested on: Salmonella typhi T-63; test: Antibacterial spectrum (MIC) on 0.5% peptone agar; type: cell-based; conditions: Salmonella enterica
Text: as §1, §2

[18] = tested on: Sarcina luteus PCI1001; test: Antibacterial spectrum (MIC) on 0.5% peptone agar; type: cell-based
Text: as §1, §2

[19] = tested on: Serratia marcescens; test: Antibacterial spectrum (MIC) on 0.5% peptone agar; type: cell-based
Text: as §1, §2

[20] = tested on: Shigella dysenteriae JS11910; test: Antibacterial spectrum (MIC) on 0.5% peptone agar; type: cell-based
Text: as §1, §2

[21] = tested on: Shigella flexneri 4bJS11811; test: Antibacterial spectrum (MIC) on 0.5% peptone agar; type: cell-based
Text: as §1, §2

[22] = tested on: Shigella sonnei JS11746; test: Antibacterial spectrum (MIC) on 0.5% peptone agar; type: cell-based
Text: as §1, §2

[23] = tested on: Staphylococcus aureus FDA209P; test: Antibacterial spectrum (MIC) on 0.5% peptone agar; type: cell-based
Text: as §1, §2

[24] = tested on: Staphylococcus aureus Simth; test: Antibacterial spectrum (MIC) on 0.5% peptone agar; type: cell-based
Text: as §1, §2

[25] = tested on: leukemia L-1210 cells; test: Cytotoxicity, growth inhibition of leukemia L-1210 cells; type: cell-based
[26] = Acute toxicity (LD50) in mice; type: in vivo; conditions: mouse, in vivo, iv
[27] = tested on: mice; test: Acute toxicity (LD50) in mice; type: in vivo; conditions: i.v., in words
[28] = tested on: gram-negative bacteria; test: Antibacterial (growth-inhibitory) activity, gram-negative bacteria; type: cell-based; conditions: in words
Text: as §1

[29] = tested on: gram-positive bacteria; test: Antibacterial (growth-inhibitory) activity, gram-positive bacteria; type: cell-based; conditions: in words
Text: as §1

[30] = Stability under basic conditions; type: physicochemical; conditions: in words

Nc1nc2c(ncn2[C@H]2C[C@H](O)[C@@H](CO)O2)c(=O)o1 [2'-deoxyoxanosine]
MIC [1]: > 100 µg/mL | MIC [2]: > 100 µg/mL | MIC [3]: > 100 µg/mL | MIC [4]: > 100 µg/mL | MIC [5]: 0.78 µg/mL (≈ 2.91 µM) | MIC [6]: 3.12 µg/mL (≈ 11.6 µM) | MIC [7]: 12.5 µg/mL (≈ 46.6 µM) | MIC [8]: > 100 µg/mL | MIC [9]: > 100 µg/mL | MIC [10]: > 100 µg/mL | MIC [11]: 6.25 µg/mL (≈ 23.3 µM) | MIC [12]: 12.5 µg/mL (≈ 46.6 µM) | MIC [13]: 25 µg/mL (≈ 93.2 µM) | MIC [14]: < 0.2 µg/mL | MIC [15]: > 100 µg/mL | MIC [16]: > 100 µg/mL | MIC [17]: > 100 µg/mL | MIC [18]: > 100 µg/mL | MIC [19]: > 100 µg/mL | MIC [20]: 1.56 µg/mL (≈ 5.82 µM) | MIC [21]: 1.56 µg/mL (≈ 5.82 µM) | MIC [22]: 0.78 µg/mL (≈ 2.91 µM) | MIC [23]: > 100 µg/mL | MIC [24]: > 100 µg/mL | IC50 ([25]; Mus musculus, L1210, read-out: IC50, the concentration inhibiting growth in 50% of leukemia L-1210 cells): 0.15 µg/mL (≈ 0.559 µM) | inhibition of growth of leukemia L-1210 cells ([25]; in words): exhibited the action to inhibit the growth of leukemia L-1210 cells | LD50 [26]: 200 mg/kg | acute toxicity compared with known antibiotics similar in structure to nucleic acids [27]: lower toxicity than that of various known antibiotics similar in structure to nucleic acids | antibacterial / growth-inhibitory activity [28]: relatively high growth-inhibitory activity | antibacterial / growth-inhibitory activity ([28]; listed as 2'-Deoxyoxanosine): excellent antibacterial activity against gram-negative bacteria | growth-inhibitory activity [29]: did not show this activity against gram-positive bacteria | stability [30]: relatively unstable under basic conditions
